Laboratory results: publication PMC4504870 (EJNMMI Research, 2015)
Read-outs that look alike come from different tables or passages of the source. Marks after values point to notes of the source that are not given here.

Assays:
[1] = cited from earlier work
[2] = cited from earlier work; remark: listed apart in the source
[3] = 90 min after injection, 12 MBq i.v., anesthetized; cited from earlier work
[4] = Radiation dose of i.v. ^68Ga-citrate estimated from ^67Ga-citrate data (literature); design: species or system human; details: converted from 0.052 rem/mCi assuming only gamma radiation
[5] = design: method as in PMID 4743583; details: i.v., estimated from ^67Ga-citrate data, uniform distribution of radioactivity assumed; cited from earlier work
[6] = ref Tang 2003, Pauleit 2003 [22], [23]

In the case of N[C@@H](Cc1cc(O)c(O)cc1[18F])C(=O)O [6-^18 F-Fluoro-L-Dopa], the “Animal derived ED” value ([1]; calculated with biological risk weight factors of ICRP 30, ref Harvey 1985, Brown 1998 [20], [21]) is given as 0.0539^b mSv/MBq and the “Human derived ED” value ([2]; ref Harvey 1985, Brown 1998 [20], [21]) is given as 0.0199 mSv/MBq.

In the case of [11CH3]Nc1ccc(-c2nc3ccc(O)cc3s2)cc1 [^11C-6-OH-BTA-1], the “Animal derived ED” value ([1]; males only, ref Parsey 2005, Scheinin 2007 [17], [18]) is listed as 0.0065^a mSv/MBq and the “Human derived ED” value ([2]; ref Parsey 2005, Scheinin 2007 [17], [18]) is listed as 0.0045 mSv/MBq.

For C[N+](C)([11CH3])CCO [^11C-Choline], the “Animal derived ED” value ([1]; ref Tolvanen 2010 [24]) is given as 0.0028 mSv/MBq and the “Human derived ED” value ([2]; ref Tolvanen 2010 [24]) is given as 0.0044 mSv/MBq.

In the case of N[C@@H](Cc1ccc(OCC[18F])cc1)C(=O)O [^18 F-FET, O-(2-[^18F]fluoroethyl)-L-tyrosine], the “Animal derived ED” value [1, 6] is given as 0.0186 mSv/MBq and the “Human derived ED” value [2, 6] is given as 0.0165 mSv/MBq.

In the case of [68Ga+3].[Cl-].[Cl-].[Cl-] [^68Ga-chloride], the “SUV, blood” value [3] is given as 2.7 ± 0.3, the “SUV, liver” value [3] is given as 5.9 ± 3.3 and the “SUV, lung” value [3] is given as 1.9 ± 0.8. The “SUV, muscle” value [3] was 0.2 ± 0.03 and the “SUV, skin” value [3] was 0.5 ± 0.1.

In the case of O=C([O-])CC(O)(CC(=O)[O-])C(=O)[O-].[68Ga+3] [^68Ga-citrate], the “Estimated absorbed dose for total body, converted” value [4] is given as 0.014 mSv/MBq and the “Estimated absorbed dose for total body” value [5] is given as 0.052 rads/mCi.

In the case of “carbon-11-methoxyprogabidic acid [^11C-MPGA]”, the “Animal derived ED” value ([1]; ref Santens 1998 [19]) is listed as 0.0048 mSv/MBq and the “Human derived ED” value ([2]; ref Santens 1998 [19]) is listed as 0.0053 mSv/MBq.
